Experiments:
[1] = tested on: C3H/He mice; assay: Hair restoring effect of sulfated monosaccharides, scoring as in Example 13(3) (Example 14(2)); format: in vivo, mouse; conditions: 3% in 50% ethanol, 200 μL once a day, score 0-4
Procedure: The administered site was observed over the passage of time from the beginning of administration, and a change in the skin color tone was evaluated by scoring. Specifically, the scoring criteria were defined as follows: Score 0: no change in the skin color, Score 1: the skin color being changed to blue, Score 2: the skin color being changed to black-blue to gray, Score 3: trichogenous state being observed, and Score 4: the state before the hair cutting being almost restored. (3) Male C3H/He mice were purchased from Nippon SLC and used for an experiment from 8 week-old after pre-breeding the mice. The hair on the backside of each mouse was cut with hair clippers, and thereafter shaved with a razor. (2) The hair restoring effect of the sulfated glucose prepared in item (1) of Example 14 was studied in the same manner as in item (3) of Example 13. Here, the sulfated glucose was dissolved in 50% ethanol in a concentration of 3%, and the resulting solution was applied onto the backside of the mice once a day in an amount of 200 μL per mouse. To the control group, 50% ethanol alone was applied. […] In addition, similar tests were carried out for the sulfated fucose, the sulfated mannose, the sulfated galactose, the sulfated xylose, the sulfated 2-deoxy-glucose and the sulfated talose.

[2] = tested on: whiskers with the hair follicles of C3H/He mice; assay: Culture of mouse whiskers with hair follicles, length of grown whisker (Examples 15-18); format: cell-based; conditions: whiskers of 6 day-old mice (Table 14)
Description: (1) Two day-old male C3H/He mice were purchased from Nippon SLC together with the mother mice and used for an experiment from 5 day-old. The mice were sacrificed by exsanguination, and the whiskers together with the subcutaneous tissues were collected using scissors and tweezers. Further, the whiskers with the hair follicles were separated in a petri dish under the microscope according to the method by Ogawa et al. (J. Invest. Dermatol 103: 306-309, 1994). Fourteen to sixteen whiskers were collected from the right and left sides per mouse. […] Here, the given concentrations of each sample added are respectively expressed as the concentration per mL medium (mg/mL) in Table 10. […] The length of whisker was determined to the order of 0.1 mm before the beginning and after the termination of the culture under the microscope using a caliper. […] In addition, Student's t-test was used for test of significance, and P value was determined against the control group. […] The hair restoring effects for the fucoidan derived from Kjellmaniella crassifolia described in item (1) of Example 1 and 7-12SFd-F described in item (3) of Example 2 were evaluated in the same manner as in item (1) of Example 15. […] The hair restoring effects for Fucoidan Bf described in item (1) of Example 16 and F-rich fucoidan described in item (2) of Example 16 were evaluated in the same manner as in item (1) of Example 15. […]

[3] = tested on: C3H/He mice; assay: Trichogenous ratio, Fucoidan Bf combined with carpronium chloride or minoxidil (Example 19); format: in vivo, mouse; conditions: for Trichogenous Ratio (%) (Trichogenous Area/Shaved Area): 200 μL once a day, 6 cases; for Trichogenous Ratio (%) (Trichogenous Area/Shaved Area) / Number of Individuals with Trichogenous Ratio of 60% or More: twenty-first day after shaving
Procedure: Male C3H/He mice were purchased from Nippon SLC and used for an experiment from 8 week-old after pre-breeding the mice. The hair on the backside of each mouse was cut with hair clippers, and thereafter shaved with a razor. […] The resulting ethanol solution was applied onto the above hair-cut site of the backside of the mice in an amount of 200 μL per mouse. To the control group, 30% ethanol solution was similarly applied. The mice were administered once a day, for consecutive days. The administered sites were observed over the passage of time from the day of the beginning of administration (the day following the shaving), and the trichogenous area was determined on the twenty-first day after shaving and expressed as the ratio (%) to the shaved area.

Molecule: sulfated (—SO3—Na^+) D-(+)-glucose [Sulfated Glucose]
- Average Score ([1]; duration of administration 11 days): 0.6
- Average Score ([1]; duration of administration 12 days): 0.6
- Average Score ([1]; duration of administration 13 days): 1.0
- Average Score ([1]; duration of administration 14 days): 1.6
- Average Score ([1]; duration of administration 15 days): 1.8
- Length of Grown Whisker (mm) (Average Value ± Standard Error) ([2]; 0.1 mg/mL): 0.39 ± 0.11 mm
- Length of Grown Whisker (mm) (Average Value ± Standard Error) ([2]; 1 mg/mL): 1.31 ± 0.31 mm

Molecule: Nc1cc(N2CCCCC2)nc(N)[n+]1[O-] [Minoxidil, minoxidil]
- Trichogenous Ratio (%) (Trichogenous Area/Shaved Area) ([3]; 0.1% in 30% ethanol): 42.9 ± 5.5%
- Number of Individuals with Trichogenous Ratio of 60% or More ([3]; 0.1% in 30% ethanol): 1/6
- Trichogenous Ratio (%) (Trichogenous Area/Shaved Area) ([3]; 1% in 30% ethanol): 69.1 ± 13.9%
- Number of Individuals with Trichogenous Ratio of 60% or More ([3]; 1% in 30% ethanol): 4/6

Molecule: COC(=O)CCC[N+](C)(C)C.[Cl-] [Carpronium Chloride, carpronium chloride]
- Trichogenous Ratio (%) (Trichogenous Area/Shaved Area) ([3]; 0.5% in 30% ethanol): 23.9 ± 4.9%
- Number of Individuals with Trichogenous Ratio of 60% or More ([3]; 0.5% in 30% ethanol): 0/6
- hair restoring effect ([3]; administration by application alone (0.5%)): No hair restoring effect
